Drawing on PubChem BioAssay AID789 (SRMLSC, 2007), this text covers IC50 for 66 compounds.

The source made the active and inactive calls. The rule behind the calls is not given here. A value given as a limit tells only on which side of the number the result lay.

In assay [1] the test system is S. cerevisiae apl2Δ mutant growth inhibition. Description: growth inhibition of apl2Δ yeast, dose response, selectivity assay for post-Golgi transport modulator project, S. cerevisiae, secondary screen, background strain comparison (AID 789).
Assay in assay [2]: as above
The settings on record: S. cerevisiae background (wild-type parent) strain growth inhibition.

In the case of `O=C(CCl)c1ccc(Cc2ncc(C(F)(F)F)cc2Cl)s1`, the results for the IC50 in assay [1] and in assay [2] were > 10 µM (inactive) and 8.68 µM, respectively.
The corresponding values for `Cc1cc([N+](=O)[O-])c(-c2ccc(/C=N/n3cnnc3)o2)cc1Cl` are 0.526 µM (inactive) and 0.134 µM.
The matching figures for `Cc1ccc(SC(=O)COc2ccc(C)c(C)c2)cc1`: > 10 µM (inactive) and more than 10 µM.
The corresponding values for `CCCOc1ccccc1N/C(=N/c1nc(C)cc(C)n1)NC(=O)COc1ccc(OC)cc1` are > 10 µM (inactive) and more than 10 µM.
Consider `COc1ccc(C(=O)Nc2ccc(Cl)cc2C(=O)N2CCCC(C)C2)cc1` (configuration not stated), for which the IC50 was 22.4 µM in assay [1] and more than 10 µM in assay [2].
For the compound `Cc1ccc(CSc2nc3ccccc3cc2C=O)cc1`, the values for the IC50 in assay [1] and in assay [2] were 7.24 µM (inactive) and 2.1 µM, respectively.
The matching figures for `CN1CCN(CCCNC(=O)Cn2nc(-c3ccccc3)ccc2=O)CC1`: > 10 µM (inactive) and more than 10 µM.
The matching figures for `CC(NC(=O)CSc1nc2c(cc1C#N)CN(C)CC2)c1ccccc1` (configuration not stated): > 10 µM (inactive) and more than 10 µM.
The corresponding values for `Cc1ccc(C(C)C)c(OCCCN2CC(C)OC(C)C2)c1` (configuration not stated) are > 10 µM (inactive) and more than 10 µM.
Regarding `CCCc1cc(NCCCCO)n2c(nc3ccccc32)c1C#N`, the IC50 is > 10 µM (inactive) in assay [1] and more than 10 µM in assay [2].
The corresponding values for `O=S(=O)(c1cnccc1N1CCN(/N=C/c2ccc(Br)cc2)CC1)N1CCCCC1` are > 10 µM (inactive) and more than 10 µM.
As for `OC(Cn1ccnc1)c1ccc(Cl)cc1Cl` (configuration not stated), the IC50 is > 10 µM (inactive) in assay [1] and more than 10 µM in assay [2].
The corresponding values for `c1ccc2c(c1)oc1c(Nc3ccc(CN4CCOCC4)cc3)ncnc12` are > 10 µM (inactive) and more than 10 µM.
The matching figures for `Cc1cccc(-n2c(N)c(C(=O)NCCN3CCOCC3)c3nc4ccccc4nc32)c1`: > 10 µM (inactive) and more than 10 µM.
The matching figures for `CCOC(=O)c1ccc(NC(=O)c2ccc(CN3CCOCC3)cc2)cc1`: > 10 µM (inactive) and more than 10 µM.
With `CCOC(=O)C1=C(N)N2C(=O)C(C)SC2=C(C(=O)OC)C1c1ccccc1OC` (configuration not stated), the IC50 in assay [1] was 9.99 µM (inactive); in assay [2], 0.163 µM.
With `COC(=O)c1ccc(CSc2nnc(NC(C)C)s2)cc1`, the IC50 in assay [1] is > 10 µM (inactive); in assay [2], more than 10 µM.
The matching figures for `CCOC(=O)c1c(NC(=O)CN2CCCCC2)sc2c1CCC(C=O)=C2Cl`: > 10 µM (inactive) and more than 10 µM.
The matching figures for `O=S(=O)(NCC(c1cccnc1)N1CCN(c2ccccc2)CC1)c1cccs1` (configuration not stated): > 10 µM (inactive) and more than 10 µM.
The corresponding values for `Cn1c(=O)cc(NCc2ccccc2)[nH]c1=O` are > 10 µM (inactive) and more than 10 µM.
In the case of `COc1ccccc1N1CCN(C2CCN(C(=O)c3cc(OC)c(OC)c(OC)c3)CC2)CC1`, the values for the IC50 in assay [1] and in assay [2] were > 10 µM (inactive) and more than 10 µM, respectively.
The matching figures for `CCOC(=O)Cc1c(C)c2ccc(N(CC)CC)cc2oc1=O`: > 10 µM (inactive) and more than 10 µM.
On to `CCN1C(=O)c2ccc(C(=O)NCc3ccccc3)cc2C1=O`, for which the IC50 in assay [1] was > 10 µM (inactive); in assay [2], more than 10 µM.
The matching figures for `Cc1c(Cl)c([N+](=O)[O-])nn1Cc1ccc(C(=O)N/N=C\c2cccc(Br)c2)o1`: > 10 µM (inactive) and more than 10 µM.
As to `N=c1c2c(-c3ccccc3)c(-c3ccccc3)n(Cc3ccco3)c2ncn1Cc1ccco1`, the IC50 in assay [1] is 16.7 µM; in assay [2], 21.5 µM.
With `CCN(CC)c1ccc(-c2nc3cnccc3n2C)cc1`, the IC50 in assay [1] is > 10 µM (inactive); in assay [2], more than 10 µM.
The matching figures for `Cc1ccc2cc(CN(CCO)Cc3nnnn3Cc3ccc(F)cc3)c(=O)[nH]c2c1`: > 10 µM (inactive) and more than 10 µM.
The corresponding values for `CCOc1cccc(C(=O)Nc2cccnc2)c1` are > 10 µM (inactive) and more than 10 µM.
The matching figures for `CCCCOc1ccc(-c2ncc(C(=O)O)c(C)n2)cc1`: > 10 µM (inactive) and more than 10 µM.
With `O=C(Cn1ncc2c3ccccc3n(Cc3ccccc3F)c2c1=O)N1CCC2(CC1)OCCO2`, the IC50 in assay [1] is > 10 µM (inactive); in assay [2] it was more than 10 µM.
Turning to `CCOC(=O)N1CCN(c2ccc(S(=O)(=O)N(Cc3ccccc3)Cc3ccccc3)cn2)CC1`, the values for the IC50 in assay [1] and in assay [2] were > 10 µM (inactive) and more than 10 µM, respectively.
The matching figures for `COc1ccc(C2C3=C(CCCC3=O)Nc3nc(-c4cc(OC)c(OC)c(OC)c4)nn32)cc1OC` (configuration not stated): > 10 µM (inactive) and more than 10 µM.
The corresponding values for `Cc1nnc(-c2cccc(Br)c2)c2cn(-c3ccccc3Cl)nc12` are > 10 µM (inactive) and 25.9 µM.
The corresponding values for `CCN(CC)CCCN(Cc1cc2cc3c(cc2[nH]c1=O)OCCO3)C(=O)Nc1ccc(F)cc1` are > 10 µM (inactive) and more than 10 µM.
Consider `O=c1cccc2n1CC1CC2CN(S(=O)(=O)c2ccccc2)C1` (configuration not stated), for which the IC50 in assay [1] is > 10 µM (inactive); in assay [2] it was more than 10 µM.
The corresponding values for `Cc1cc(C)nc(N/N=C/C(Cl)=C/c2ccccc2)n1` are > 10 µM (inactive) and more than 10 µM.
The matching figures for `COc1ccc(C2=NC(C(F)(F)F)(C(F)(F)F)c3c(n(C)c(=O)n(C)c3=O)N2)cc1`: > 10 µM (inactive) and more than 10 µM.
With `CC(=O)Nc1ccccc1NS(=O)(=O)c1ccc(Cl)cc1`, the IC50 in assay [1] is > 10 µM (inactive); in assay [2], more than 10 µM.
For `Cc1nn(-c2ccccn2)c(C)c1Oc1ccccc1O`, the IC50 in assay [1] was > 10 µM (inactive); in assay [2], more than 10 µM.
The matching figures for `Cc1ccn2cc(-c3nonc3C)cc2c1`: > 10 µM (inactive) and more than 10 µM.
Consider `Cc1ccc(C(=O)c2c(NC(=O)c3ccncc3)sc3c2CCCC3)cc1`, for which the IC50 in assay [1] is > 10 µM (inactive); in assay [2], more than 10 µM.
The corresponding values for `Cc1ccc(S(=O)(=O)N2CCN(C3CCN(Cc4ccccc4)CC3)CC2)cc1` are > 10 µM (inactive) and more than 10 µM.
As to `O=C(NCc1ccccc1)NS(=O)(=O)c1ccccc1Cl`, the IC50 in assay [1] is > 10 µM (inactive); in assay [2], more than 10 µM.
The corresponding values for `CC1CCCN(CCOCCOc2ccc(Cl)cc2Br)C1` (configuration not stated) are 21.7 µM and more than 10 µM.
The matching figures for `COc1ccc2nc(NCCCNC(=O)c3cc(OC)c(OC)c(OC)c3)c(C#N)cc2c1`: > 10 µM (inactive) and more than 10 µM.
As for `O=C1NC2(Nc3ccccc31)C(=O)Nc1ccccc12` (configuration not stated), the results for the IC50 in assay [1] and in assay [2] were > 10 µM (inactive) and more than 10 µM, respectively.
The corresponding values for `COc1cccc(NC(=O)c2ccc(CN3CCN(c4ccccc4)CC3)cc2)c1` are > 10 µM (inactive) and more than 10 µM.
The matching figures for `Cc1ccc(C(=O)OCn2ncc(Cl)c(Cl)c2=O)cc1`: > 10 µM (inactive) and 4.62 µM.
The matching figures for `N=c1nc(N)nc2n1NC(c1ccc(F)cc1)=CS2`: > 10 µM (inactive) and more than 10 µM.
In the case of `N#Cc1nc(COc2ccc(-c3ccccc3)cc2)oc1NCCCN1CCOCC1`, the IC50 in assay [1] was 17.2 µM (inactive); in assay [2], 15.4 µM.
The corresponding values for `CCOC(=O)Cn1cc(C=O)c2ccccc21` are > 10 µM (inactive) and more than 10 µM.
The corresponding values for `CCOC(=O)C(C)Oc1ccc2c(C)cc(=O)oc2c1C(C)=O` (configuration not stated) are > 10 µM (inactive) and more than 10 µM.
The corresponding values for `Cc1ccc(SC(C)C(=O)Nc2ncn[nH]2)cc1` (configuration not stated) are > 10 µM (inactive) and more than 10 µM.
Regarding `Cn1nnc2cc(C(=O)Nc3cccnc3)ccc21`, the IC50 in assay [1] is > 10 µM (inactive); in assay [2], more than 10 µM.
The matching figures for `Cc1cc(=O)[nH]c(SCC(=O)c2ccc(C)c(C)c2)n1`: 6.63 µM (inactive) and 2.31 µM.
Regarding `Cc1cccc(OCC(=O)O/N=C(\N)Cc2ccc(Cl)cc2)c1`, the IC50 in assay [1] was > 10 µM (inactive); in assay [2] it was 10.4 µM.
The corresponding values for `CCC(=O)c1ccc(N2CCN(C(=O)c3ccc(Br)cc3)CC2)c(F)c1` are > 10 µM (inactive) and more than 10 µM.
The corresponding values for `O=C(NCC(=O)N(c1cccnc1)C(C(=O)NCc1ccco1)c1ccccc1)c1ccco1` (configuration not stated) are > 10 µM (inactive) and more than 10 µM.
The corresponding values for `CCCn1nc([N+](=O)[O-])c(C(C#N)c2nc3ccccc3s2)c(Cl)c1=O` (configuration not stated) are 13.7 µM (inactive) and 2.16 µM.
Consider `O=C1OCC2=C1C(c1ccc(F)cc1)Sc1ccccc1N2` (configuration not stated), for which the IC50 is > 10 µM (inactive) in assay [1] and more than 10 µM in assay [2].
The corresponding values for `O=C(NCc1ccc2c(c1)OCO2)c1ccc(CS(=O)(=O)c2cccc(C(F)(F)F)c2)o1` are > 10 µM (inactive) and more than 10 µM.
The corresponding values for `O=[N+]([O-])c1ccc(N/N=C/c2c[nH]c3ccccc23)c(S(=O)(=O)Nc2ccc(Cl)cc2)c1` are 7.17 µM (inactive) and 2.5 µM.
The corresponding values for `Cc1nnc(-c2cccc(Br)c2)c2cn(-c3ccccc3)nc12` are > 10 µM (inactive) and more than 10 µM.
Turning to `COc1ccc(NC(=S)NC(NC(=O)c2ccc(Cl)cc2Cl)C(Cl)(Cl)Cl)c([N+](=O)[O-])c1` (configuration not stated), the IC50 is > 10 µM (inactive) in assay [1] and more than 10 µM in assay [2].
Regarding `CCN1CCN(c2c(Cl)cccc2NC(=O)c2ccc(Br)o2)CC1`, the figures for the IC50 in assay [1] and in assay [2] were > 10 µM (inactive) and more than 10 µM, respectively.
The corresponding values for `O=C(COc1ccc(Br)cc1F)NC1CCN(Cc2ccccc2)CC1` are > 10 µM (inactive) and more than 10 µM.
